From ChEMBL document CHEMBL4038270, “Synthesis of heterocyclic ring-fused tricyclic diterpene analogs as novel inhibitors of RANKL-induced osteoclastogenesis and bone resorption” (Eur J Med Chem, 2017)
The source made the active and inactive calls. The rule behind the calls is not given here.

What was measured:
Mus musculus [1] = assay: Toxicity in ovariectomized C57BL/6 mouse assessed as effect on body weight at 5 to 20 mg/kg, ip administered for 60 days measured every 7 days during compound dosing; assay type: organism-based; conditions: in vivo
Bone marrow monocyte [2] = assay: Inhibition of RANKL-induced C-src mRNA expression in C57BL/6 mouse bone marrow monocytes at 10 uM in presence of M-CSF by SYBR green-dye based qRT-PCR analysis; assay type: functional, cell-based; conditions: TDE = time-dependent effect
Mus musculus [3] = assay: Protection against ovariectomized-induced osteoporosis in C57BL/6 mouse assessed as reduction in trabecular separation of femur at 20 mg/kg, ip administered for 60 days by micro computed tomography; assay type: functional, organism-based
[4] = Selectivity index, ratio of IC50 for C57BL/6 mouse bone marrow monocytes to IC50 for RANKL-induced C57BL/6 mouse bone marrow monocytes differentiation into osteoclasts; design: species or system Bone marrow monocyte
[5] = Cytotoxicity against C57BL/6 mouse bone marrow monocytes assessed as reduction in cell viability at 20 uM after 72 hrs in presence of M-CSF by MTS assay; assay type: cell-based; conditions: bone marrow monocyte
[6] = Inhibition of RANKL-induced C57BL/6 mouse bone marrow monocytes differentiation into osteoclasts at 0.1 uM after 6 days in presence of M-CSF by tartrate-resistant acid phosphatase staining based assay relative to control; assay type: functional; conditions: C57BL/6, Bone marrow monocyte, 144 h
Mus musculus [7] = organism: Mus musculus; assay: Inhibition of RANKL-induced IKK-mediated NF-kappa-B p65 phosphorylation in mouse […] cells at 10 uM pretreated for 4 hrs followed by RANKL stimulation measured for 60 mins by Western blot method; assay type: cell-based
Bone marrow monocyte [8] = assay: Inhibition of RANKL-induced CTR mRNA expression in C57BL/6 mouse bone marrow monocytes measured after 5 days in presence of M-CSF by SYBR green-dye based qRT-PCR analysis; assay type: functional, cell-based
Mus musculus [9] = assay: Protection against ovariectomized-induced osteoporosis in C57BL/6 mouse assessed as increase in ratio of bone volume to tissue volume of femur at 20 mg/kg, ip administered for 60 days by micro computed tomography; assay type: functional, organism-based
[10] = target: MAP kinase p38 (Mus musculus) (UniProt P47811+O08911+Q9WUI1+Q9Z1B7); assay: Inhibition of RANKL-induced p38 phosphorylation in mouse […] cells at 10 uM pretreated for 4 hrs followed by RANKL stimulation measured for 60 mins by Western blot method; assay type: cell-based
Mus musculus [11] = assay: Protection against ovariectomized-induced osteoporosis in C57BL/6 mouse assessed as increase in bone mineral density of femur at 20 mg/kg, ip administered for 60 days by micro computed tomography; assay type: functional, organism-based
[12] = Inhibition of RANKL-induced C57BL/6 mouse bone marrow monocytes differentiation into osteoclasts at 2 uM after 6 days in presence of M-CSF by tartrate-resistant acid phosphatase staining based assay relative to control; assay type: functional; conditions: C57BL/6, Bone marrow monocyte, 144 h
Bone marrow monocyte [13] = assay: Inhibition of RANKL-induced TRAP mRNA expression in C57BL/6 mouse bone marrow monocytes at 10 uM in presence of M-CSF by SYBR green-dye based qRT-PCR analysis; assay type: functional, cell-based; conditions: TDE = time-dependent effect
Mus musculus [14] = organism: Mus musculus; assay: Inhibition of RANKL-induced ERK phosphorylation in mouse […] cells at 10 uM pretreated for 4 hrs followed by RANKL stimulation measured for 60 mins by Western blot method; assay type: cell-based
Mus musculus [15] = assay: Protection against ovariectomized-induced osteoporosis in C57BL/6 mouse assessed as increase in trabecular number of femur at 20 mg/kg, ip administered for 60 days by micro computed tomography; assay type: functional, organism-based
Bone marrow monocyte [16] = assay: Inhibition of RANKL-induced C-src mRNA expression in C57BL/6 mouse bone marrow monocytes measured after 5 days in presence of M-CSF by SYBR green-dye based qRT-PCR analysis; assay type: functional, cell-based
Bone marrow monocyte [17] = assay: Inhibition of RANKL-induced cathepsin K mRNA expression in C57BL/6 mouse bone marrow monocytes at 10 uM in presence of M-CSF by SYBR green-dye based qRT-PCR analysis; assay type: functional, cell-based; conditions: TDE = time-dependent effect
Mus musculus [18] = organism: Mus musculus; assay: Inhibition of RANKL-induced JNK phosphorylation in mouse […] cells at 10 uM pretreated for 4 hrs followed by RANKL stimulation measured for 60 mins by Western blot method; assay type: cell-based
Mus musculus [19] = organism: Mus musculus; assay: Inhibition of RANKL-induced IKK mediated IkappaBalpha degradation in mouse […] cells at 10 uM pretreated for 4 hrs followed by RANKL stimulation measured for 60 mins by Western blot method; assay type: cell-based
Mus musculus [20] = assay: Protection against ovariectomized-induced osteoporosis in C57BL/6 mouse assessed as increase in trabecular thickness of femur at 20 mg/kg, ip administered for 60 days by micro computed tomography; assay type: functional, organism-based
Mus musculus [21] = assay: Protection against ovariectomized-induced osteoporosis in C57BL/6 mouse assessed as reduction in femur structure model index at 20 mg/kg, ip administered for 60 days by micro computed tomography; assay type: functional, organism-based
[22] = Cytotoxicity against C57BL/6 mouse bone marrow monocytes assessed as reduction in cell viability after 72 hrs in presence of M-CSF by MTS assay; assay type: cell-based; conditions: C57BL/6, Bone marrow monocyte
[23] = Cytotoxicity against C57BL/6 mouse bone marrow monocytes assessed as reduction in cell viability at 2 uM after 72 hrs in presence of M-CSF by MTS assay; assay type: cell-based; conditions: bone marrow monocyte
Bone marrow monocyte [24] = assay: Inhibition of RANKL-induced NFATc1 mRNA expression in C57BL/6 mouse bone marrow monocytes at 10 uM in presence of M-CSF by SYBR green-dye based qRT-PCR analysis; assay type: functional, cell-based; conditions: TDE = time-dependent effect
[25] = Effect on osteblast differentiation in mouse Mesenchymal stem cells at 2 to 10 uM measured after 7 days in presence of dexamethasone/b-glycerophosphate/Vitamin C by ALP staining assay; assay type: cell-based; conditions: mesenchymal stem cell, 168 h
[26] = Inhibition of RANKL-induced C57BL/6 mouse bone marrow monocytes differentiation into osteoclasts at 0.5 uM after 6 days in presence of M-CSF by tartrate-resistant acid phosphatase staining based assay relative to control; assay type: functional; conditions: C57BL/6, Bone marrow monocyte, 144 h
Mus musculus [27] = assay: Inhibition of ovariectomized-induced osteoclast activity in C57BL/6 mouse femur at 5 mg/kg, ip administered for 60 days by tartrate-resistant acid phosphatase staining; assay type: functional, organism-based
Mus musculus [28] = assay: Anti-osteoporotic activity in ovariectomized-induced osteoporosis in C57BL/6 mouse assessed as increase in bone strength at 20 mg/kg, ip administered for 60 days by three point bending test; assay type: functional, organism-based
[29] = (§1) Inhibition of RANKL-induced C57BL/6 mouse bone marrow monocytes differentiation into osteoclasts after 6 days in presence of M-CSF by tartrate-resistant acid phosphatase staining based assay; assay type: functional, cell-based; conditions: C57BL/6, Bone marrow monocyte, 144 h
Bone marrow monocyte [30] = assay: as §1; assay type: functional, cell-based
Bone marrow monocyte [31] = assay: Inhibition of RANKL-induced NFATc1 mRNA expression in C57BL/6 mouse bone marrow monocytes measured after 5 days in presence of M-CSF by SYBR green-dye based qRT-PCR analysis; assay type: functional, cell-based
Bone marrow monocyte [32] = assay: Inhibition of RANKL-induced TRAP mRNA expression in C57BL/6 mouse bone marrow monocytes measured after 5 days in presence of M-CSF by SYBR green-dye based qRT-PCR analysis; assay type: functional, cell-based
Bone marrow monocyte [33] = assay: Inhibition of RANKL-induced cathepsin K mRNA expression in C57BL/6 mouse bone marrow monocytes measured after 5 days in presence of M-CSF by SYBR green-dye based qRT-PCR analysis; assay type: functional, cell-based
Mus musculus [34] = assay: Inhibition of ovariectomized-induced osteoclast activity in C57BL/6 mouse femur at 20 mg/kg, ip administered for 60 days by tartrate-resistant acid phosphatase staining method; assay type: functional, organism-based
Bone marrow monocyte [35] = assay: Inhibition of RANKL-induced CTR mRNA expression in C57BL/6 mouse bone marrow monocytes at 10 uM in presence of M-CSF by SYBR green-dye based qRT-PCR analysis; assay type: functional, cell-based; conditions: TDE = time-dependent effect
[36] = Potency index, ratio of maslinic acid IC50 to compound IC50 for RANKL-induced C57BL/6 mouse bone marrow monocytes differentiation into osteoclasts; assay type: functional, Bone marrow monocyte

inhibition [10]: Active | IC50 [29]: 0.04 µM
Compound: CNC(=O)c1cc2c(cc1OC)[C@@]1(C)Cc3nc(C)oc3C(C)(C)[C@@H]1CC2
Activity (Mus musculus [1]): Non-Toxic | inhibition (Bone marrow monocyte [2]): Tde | Activity (Mus musculus [3]): Active | Ratio IC50 [4]: 2208 | Activity [5]: Toxic | inhibition at 0.1 µM [6]: 72.3% | inhibition (Mus musculus [7]): Active | inhibition (Bone marrow monocyte [8]): Dose-dependent effect | Activity (Mus musculus [9]): Active | Activity (Mus musculus [11]): Active | inhibition at 2 µM [12]: 100% | inhibition (Bone marrow monocyte [13]): Tde | inhibition (Mus musculus [14]): Active | Activity (Mus musculus [15]): Active | inhibition (Bone marrow monocyte [16]): Dose-dependent effect | inhibition (Bone marrow monocyte [17]): Tde | inhibition (Mus musculus [18]): Active | inhibition (Mus musculus [19]): Active | Activity (Mus musculus [20]): Active | Activity (Mus musculus [21]): Active | IC50 [22]: 88.3 µM | Activity [23]: Non-Toxic | inhibition (Bone marrow monocyte [24]): Tde | Activity [25]: Non-Toxic | inhibition at 0.5 µM [26]: 92.7% | inhibition (Mus musculus [27]): inactive | Activity (Mus musculus [28]): Active | inhibition (Bone marrow monocyte [30]): Dose-dependent effect | inhibition (Bone marrow monocyte [31]): Dose-dependent effect | inhibition (Bone marrow monocyte [32]): Dose-dependent effect | inhibition (Bone marrow monocyte [33]): Dose-dependent effect | inhibition (Mus musculus [34]): Active | inhibition (Bone marrow monocyte [35]): Tde | Ratio IC50 [36]: 16
